Targets include HLA-DRB1*01:01 (Homo sapiens, UniProt P01903+P01911, A100R/D57E/F55L/F60I/F76Y/I96L/L162R/M171V/P40L/Q125E/R42F/V115G/Y59C); HLA-DRB1*11:01 (Homo sapiens, UniProt P01903+P01911, A100R/A169T/A87E/I96F/K41T/L162R/M171V/P40S/Q125H/Q178H/Q39Y/Q99D/R42S/S66Y/T262R/V115G/W38E); HLA-DRB1*04:05 (Homo sapiens, UniProt P01903+P01911, A100R/A169T/D86S/F76Y/I96L/K127E/L162R/M171V/N62H/P40V/Q125Y/R42H/S133A/S149N/S66Y/V115G/V209L/W38E); HLA-DRB1*07:01 (Homo sapiens, UniProt P01903+P01911, A100R/A102G/A103Q/D57E/D86V/E43K/F76Y/K127E/L162R/M171V/P40G/Q125H/Q99D/R33Q/R42Y/R54Q/S133A/S66F/T210M/V115G/Y107V/Y59L/Y89S); HLA-DRB1*09:01 (Homo sapiens, UniProt P01903+P01911, A100R/A103E/D57H/D86V/F55Y/F60I/F76Y/I96F/K127E/L162R/M171V/P40D/Q125H/Q99R/R33Q/R42F/S133A/S66N/T210M/V115G/W38K/Y107V/Y59G/Y89S); HLA-DRB1*15:01 (Homo sapiens, UniProt P01903+P01911); HLA-DRB1*04:01 (Homo sapiens, UniProt P01903+P01911, A100K/A169T/F76Y/I96L/K127E/L162R/M171V/N62H/P40V/Q125Y/R42H/S133A/S149N/S66Y/V115G/V209L/W38E); HLA-DRB1*03:01 (Homo sapiens, UniProt P01903+P01911, A100K/A102G/A103R/A169T/F55Y/I96L/K41T/L162R/M171V/P40S/Q125H/Q178H/Q39Y/R42S/S66N/T106N/T262R/W38E/Y61H); HLA-DRB1*12:01 (Homo sapiens, UniProt P01903+P01911, A100R/A169T/D57E/D86V/F55L/H45Y/K41T/L162R/M171V/P40S/Q125H/Q178H/Q39Y/Q99D/R42G/S66L/T262R/V114A/V67L/W38E/Y59H/Y61H/Y89S); HLA-DRB1*13:02 (Homo sapiens, UniProt P01903+P01911, A100E/A169T/K41T/L162R/M171V/P40S/Q125H/Q178H/Q39Y/Q99D/R42S/S66N/T262R/V115G/W38E/Y61H); HLA-DRB1*08:02 (Homo sapiens, UniProt P01903+P01911, A100R/A103L/A169T/F76Y/H45Y/I96F/K41T/L162R/M171V/P40S/Q125H/Q178H/Q39Y/Q99D/R218S/R42G/S66Y/V115G/W38E).

Holding throughout (test): biochemical
What all share (type): binding

SMILES strings stand for the structures.

HLA-DRB1*03:01, sequence (P01903 26-254, other chains not shown): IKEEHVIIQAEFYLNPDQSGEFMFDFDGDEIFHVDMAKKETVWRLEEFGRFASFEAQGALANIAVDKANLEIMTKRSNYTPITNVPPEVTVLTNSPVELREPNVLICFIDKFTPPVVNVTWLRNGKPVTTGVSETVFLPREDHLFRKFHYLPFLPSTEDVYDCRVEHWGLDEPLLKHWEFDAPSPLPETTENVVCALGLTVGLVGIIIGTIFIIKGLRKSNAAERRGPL
HLA-DRB1*11:01, sequence (P01903 26-254 limits assumed, other chains not shown): as the sequence (P01903 26-254, other chains not shown) above
HLA-DRB1*13:02, sequence (P01903 26-254 limits assumed, other chains not shown): as the sequence (P01903 26-254, other chains not shown) above

In the case of `CC[C@H](C)[C@H](NC(=O)CN)C(=O)N[C@@H](Cc1ccc(O)cc1)C(=O)N[C@@H](CCC(N)=O)C(=O)N[C@H](C(=O)N[C@@H](CO)C(=O)N[C@@H](CC(N)=O)C(=O)N[C@@H](Cc1ccccc1)C(=O)N[C@@H](CCCNC(=N)N)C(=O)N[C@H](C(=O)N[C@@H](CCC(N)=O)C(=O)N1CCC[C@H]1C(=O)N[C@H](C(=O)N[C@@H](CCC(=O)O)C(=O)N[C@@H](CO)C(=O)O)[C@@H](C)O)C(C)C)[C@@H](C)O` [compound 63], the IC50 against HLA-DRB1*01:01 is 2.39 µM; against HLA-DRB1*11:01, 1.14 µM; against HLA-DRB1*04:05, 0.201 µM; on HLA-DRB1*07:01, 0.012 µM; against HLA-DRB1*09:01, 0.305 µM; at HLA-DRB1*15:01, 0.021 µM. The IC50 against HLA-DRB1*04:01 is 0.062 µM; on HLA-DRB1*03:01, more than 40 µM; against HLA-DRB1*12:01 it was 2.07 µM; at HLA-DRB1*13:02, 10.7 µM; on HLA-DRB1*08:02, more than 40 µM.

For `CC[C@H](C)[C@H](NC(=O)[C@H](CCCNC(=N)N)NC(=O)[C@H](CCCCN)NC(=O)[C@H](CCCNC(=N)N)NC(=O)[C@H](CC(N)=O)NC(=O)[C@H](Cc1c[nH]c2ccccc12)NC(=O)[C@H](C)NC(=O)[C@H](Cc1ccc(O)cc1)NC(=O)[C@@H](NC(=O)[C@H](CO)NC(=O)[C@H](C)NC(=O)[C@H](Cc1ccccc1)NC(=O)[C@@H](N)CCCNC(=N)N)C(C)C)C(=O)N[C@@H](CO)C(=O)N[C@@H](CC(N)=O)C(=O)O` [compound 70], the IC50 is 5.93 µM against HLA-DRB1*01:01; 0.0039 µM against HLA-DRB1*11:01; 6.27 µM on HLA-DRB1*04:05; 0.54 µM at HLA-DRB1*07:01; 1.38 µM against HLA-DRB1*09:01; 0.136 µM on HLA-DRB1*15:01. For the same compound, the IC50 was 7.89 µM at HLA-DRB1*04:01; more than 40 µM at HLA-DRB1*03:01; 31.6 µM at HLA-DRB1*12:01; more than 40 µM at HLA-DRB1*13:02; 0.064 µM at HLA-DRB1*08:02.

Consider `CSCC[C@H](NC(=O)[C@H](CC(C)C)NC(=O)[C@H](Cc1ccccc1)NC(=O)[C@@H]1CCCN1C(=O)[C@H](CCC(N)=O)NC(=O)[C@H](CO)NC(=O)[C@@H](NC(=O)[C@H](Cc1ccc(O)cc1)NC(=O)[C@H](CCC(=O)O)NC(=O)[C@H](Cc1ccccc1)NC(=O)[C@@H](NC(=O)[C@@H](N)CS)[C@@H](C)O)C(C)C)C(=O)N[C@@H](CC(=O)O)C(=O)N[C@@H](CC(C)C)C(=O)N[C@@H](CCC(=O)O)C(=O)O` [peptide 34], for which the IC50 was found to be 0.495 µM on HLA-DRB1*01:01; 3.38 µM on HLA-DRB1*11:01; 0.016 µM on HLA-DRB1*04:05; 7.24 µM at HLA-DRB1*15:01; 1.15 µM against HLA-DRB1*04:01; 5.86 µM against HLA-DRB1*03:01. Also, the IC50 at HLA-DRB1*12:01 was determined as 0.416 µM; at HLA-DRB1*08:02 it was 1.47 µM.

Turning to `CC[C@H](C)[C@H](NC(=O)[C@H](CC(=O)O)NC(=O)CNC(=O)[C@H](CC(C)C)NC(=O)[C@H](CS)NC(=O)[C@H](CC(=O)O)NC(=O)CNC(=O)[C@H](Cc1ccc(O)cc1)NC(=O)[C@H](CCC(N)=O)NC(=O)[C@H](CCCCN)NC(=O)[C@@H](NC(=O)[C@H](Cc1ccccc1)NC(=O)CNC(=O)[C@H](C)N)[C@@H](C)CC)C(=O)N[C@@H](C)C(=O)O` [peptide 167], the IC50 was determined as 1.1 µM against HLA-DRB1*01:01; 3.75 µM against HLA-DRB1*11:01; 0.95 µM on HLA-DRB1*04:05; 0.74 µM against HLA-DRB1*07:01; 1.56 µM against HLA-DRB1*09:01; 0.716 µM against HLA-DRB1*15:01. Further, the figures for the IC50 on HLA-DRB1*04:01, against HLA-DRB1*12:01 and on HLA-DRB1*08:02 were 0.836 µM, 17 µM and 22.3 µM, respectively.

Source of the values: article PMC9363231, “High‐resolution analysis of individual spike peptide‐specific CD4 ^+ T‐cell responses in vaccine recipients and COVID‐19 patients” (Clinical & Translational Immunology, 2022).
